# PMC11769294, “(E)-1-(3-(3-Hydroxy-4-Methoxyphenyl)-1-(3,4,5-Trimethoxyphenyl)allyl)-1H-1,2,4-Triazole and Related Compounds: Their Synthesis and Biological Evaluation as Novel Antimitotic Agents Targeting Breast Cancer” (Pharmaceuticals, 2025)
# Tests used:
# [1] = tested on: MCF-10A human mammary epithelial cells; assay: Cytotoxicity in MCF-10A cells (alamarBlue); format: cell-based; conditions: 10 μM, 24 h
# Method: Figure 9 Effect of compounds 22a (A) and 22b (B) on the cell viability of non-tumorigenic MCF-10A human mammary epithelial cells at 24, 48, and 72 h. Cells were treated with the compounds 22a and 22b at concentrations of 10 μM, 1 μM, 0.5 μM, and 0.4 μM for 24, 48, or 72 h. […] Cell viability was expressed as a percentage of vehicle control (ethanol 1% (v/v)) and was determined by an alamarBlue assay (average ± SEM of three independent experiments). Two-way ANOVA (Bonferroni post-test) was used to test for statistical significance (*, p < 0.05; **, p < 0.01; ***, p < 0.001).
# HL-60 cells were suspension cells and the seeding density for the viability assay was 25,000 cells/mL. MCF-7 cells (adherent) were cultured in Minimum Essential Media (MEM) with GlutaMAX™-I, supplemented with 1% (v/v) non-essential amino acids, 10% (v/v) fetal bovine serum (FBS), purchased from BD Biosciences (Edmund Halley Road, Oxford, UK), and 1% (v/v) penicillin/streptomycin 5000 U/mL. The MCF-7 cells used in the screening of the compounds during these experiments were mycoplasma-free. The seeding density of MCF-7 in the viability assay was 25,000 cells/mL and 50,000 cells/mL in the FACS assay. Normal breast cells (MCF-10A) (adherent) were cultured in Dulbecco’s Modified Eagle Medium: Nutrient Mixture F-12 (DMEM/F12; Gibco) supplemented with 5% horse serum (Invitrogen, Waltham, MA, USA), 20 ng/mL epidermal growth factor (Merck Millipore, Burlington, MA, USA), 0.5 μg/mL hydrocortisone (Sigma, Kanagawa, Japan), 100 ng/mL cholera toxin (Sigma), 10 μg/mL insulin (Sigma), and penicillin/streptomycin 5000 U/mL (1%) (Gibco, Waltham, MA, USA). […] MDA-MB-231 cells were cultured in Dulbecco’s Modified Eagle Medium, which was supplemented with 10% (v/v) fetal bovine serum (FBS) and 1% (v/v) penicillin/streptomycin 5000 U/mL. When not in use, all cells were kept in liquid nitrogen and frozen in a freezing media made of 90% FBS and 10% DMSO. All cells were grown in an atmosphere of 5% CO2/95% air in T75 culture flasks. The media was changed every 2–3 days and media was always prewarmed to 37 °C. All were sub-cultured every 3–4 days by trypsinization using TrypLE™ Express enzyme when confluence was reached to allow growth, prevent excessive cell death, and minimize the risk of infections derived by over-confluence. For the cell viability assay, the number of cells per milliliter was 25,000 cells/mL while the FACS assay utilized 50,000 cells/mL. Cells were maintained at 37 °C in 5% CO2 in a humidified incubator.
# The biochemical assays were performed in triplicate and on at least three independent occasions to facilitate the determination of mean values. For the viability assay, cells were grown until 80% confluent. Adherent cells such as MCF-7, MDA-MB-231, and MCF-10A were trypsinized to detach them from the flask, counted as previously described, and seeded in 96 well plates with a seeding density of 25,000 cells /mL (200 µL of suspension in each well so that the final number of cells per well was 5000) and 1 × 10^4 cells/well seeding density for suspension HL-60 cells. Adherent cells were incubated for 24 h after being seeded in the 96 well plate and treated on the following day, while suspension cells were treated on the same day of the seeding. In both cases, the incubation time after the treatment with the drug was 72 h. After 68 h incubation, the AlamarBlue was added (20 µL in each well) and the incubation time was completed. After 72 h, the change in color was measured by spectrofluorimetry at an excitation wavelength of 544 nm and emission wavelength of 590 nm. AlamarBlue is a cell viability indicator containing a compound called resazurin. AlamarBlue is water soluble, stable in culture media, non-toxic, and is permeable through the cell membrane. When resazurin (blue) enters the live cells, it is reduced to the fluorescent molecule resorufin (pink).
# MCF-7 cells = assay: Cell cycle analysis (PI, flow cytometry); format: cell-based, human; conditions: 1 μM
# Method: Figure 10 Compound (A) 22b, (B) phenstatin 19c induced apoptosis in a time-dependent manner in MCF-7 cells. Cells were treated with either vehicle control [0.1% ethanol (v/v)] or compound 22b or phenstatin 19c (1 μM) for 24, 48, and 72 h). The data shown for the control vehicle and phenstatin are as we previously reported. Cells were fixed and stained with PI, followed by analysis using flow cytometry. Cell cycle analysis was performed on histograms of gated counts per DNA area (FL2-A). The number of cells with <2 N (sub-G1), 2 N (G0G1), and 4 N (G2/M) DNA content was determined with CellQuest software, BD CellQuest Pro. Values are represented as the mean ± SEM for three separate experiments. Two-way ANOVA (Bonferroni post-test) was used to test for statistical significance (*, p < 0.05; **, p < 0.01; ***, p < 0.001).
# Cells (MCF-7 and MDA-MD 231) were seeded at a density of 1 × 10^5 cells/well in 6-well plates (volume of 3 mL per well) and treated with selected compound 22b and phenstatin (19c) (1 μM), as previously reported. The time points used were 24, 48, or 72 h. Ethanol was used as the vehicle. At each time point, the media was removed and then the well was carefully rinsed with PBS and TrypLE™ Express enzyme (200 µL) was added to detach the adherent cells. The cells were collected by trypsinization and were then centrifuged at 800× g for 15 min. Cells were washed with ice-cold phosphate-buffered saline (PBS) ×2 and fixed in ice-cold 70% ethanol for 14 h at −20 °C. Fixed cells were centrifuged at 800× g for 15 min. The samples were then treated with 12.5 µL of DNase-free RNAse A (10 mg/mL) together with […] of PI (1 mg/mL) at 37 °C for 30 min, vortexed, and wrapped in tin foil. The DNA content of cells (10,000 cells/selected experimental group) was determined by flow cytometry at 488 nm with a FACSCalibur flow cytometer (BD Biosciences, San Jose, CA, USA) using the CellQuest Software (Becton-Dickinson, East Rutherford, NJ, USA). Each experiment was performed on three separate occasions.
structure (smiles),measurement,setting,value
"COc1ccc(/C=C/C(c2cc(OC)c(OC)c(OC)c2)n2cncn2)cc1O (stereo not shown) [Compound 22b, (E)-5-(3-(1H-1,2,4-Triazol-1-yl)-3-(3,4,5-trimethoxyphenyl)prop-1-en-1-yl)-2-methoxyphenol]",cell death,[1],approximately 50%
same,cells in G2/M phase,MCF-7 cells; 24 h,35%
same,cells in apoptosis (sub-G1),MCF-7 cells; 24 h,14%
same,cells in G2/M phase,MCF-7 cells; 48 h,26%
same,cells in apoptosis (sub-G1),MCF-7 cells; 48 h,23%
same,cells in G2/M phase,MCF-7 cells; 72 h,23%
same,cells in apoptosis (sub-G1),MCF-7 cells; 72 h,31%
